Measurements as given in US20240109896A1, “FGFR KINASE INHIBITOR AND USE THEREOF” (YA THERAPEUTICS INC, priority 2021, published 2024).
Where two headings read alike, the source gives them in different places.

Tests used:
FGFR4 = FGFR4 (Homo sapiens, UniProt P22455); assay: In vitro activity inhibition test for kinase FGFR4;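 further: caliper mobility shift assay of FGFR4 kinase activity, compounds tested as 10-point 4-fold dilution series with 0.5% DMSO final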
Method: (§1) In Vitro Activity Inhibition Test for Kinases FGFR1, FGFR2, FGFR3 and FGFR4
(§2) The activity of FGFR1, FGFR2, FGFR3 and FGFR4 protein kinases was determined by Caliper mobility shift assay. Perform a 4-fold gradient dilution from a working concentration of 0.2 mM in DMSO, diluting 10 concentrations. Add 2 μL of compound to 78 μL of 1× compound buffer. There were 10 points each for the negative control and the positive control. Shake the board on the rocker for 20 min. […] The final concentration of DMSO was 0.5%.

FGFR2 = FGFR2 (Homo sapiens, UniProt P21802); assay: In vitro activity inhibition test for kinase FGFR2; type: biochemical; conditions: kinase assay, 25° C.; read-out: Inhibition of separase IC50 (nM) FGFR2
FGFR1 = FGFR1 (Homo sapiens, UniProt P11362); assay: In vitro activity inhibition test for kinase FGFR1
Method: as §1, §2

FGFR3 = FGFR3 (Homo sapiens, UniProt P22607); assay: In vitro activity inhibition test for kinase FGFR3;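 further: FGFR3 kinase activity read by Caliper mobility shift assay, compounds run as 10-point 4-fold dilution series, final DMSO 0.5%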
Method: as §1, §2

[1] = read-out: Inhibition of kinase IC50 (nM) FGFR4, kinase assay, 25° C.
[2] = read-out: Inhibition of FGFR1 IC50 (nM) FGFR1, kinase assay, 25° C.
[3] = read-out: Inhibition IC50 (nM) FGFR3, kinase assay, 25° C.

Chain of FGFR1 (P11362 22-822): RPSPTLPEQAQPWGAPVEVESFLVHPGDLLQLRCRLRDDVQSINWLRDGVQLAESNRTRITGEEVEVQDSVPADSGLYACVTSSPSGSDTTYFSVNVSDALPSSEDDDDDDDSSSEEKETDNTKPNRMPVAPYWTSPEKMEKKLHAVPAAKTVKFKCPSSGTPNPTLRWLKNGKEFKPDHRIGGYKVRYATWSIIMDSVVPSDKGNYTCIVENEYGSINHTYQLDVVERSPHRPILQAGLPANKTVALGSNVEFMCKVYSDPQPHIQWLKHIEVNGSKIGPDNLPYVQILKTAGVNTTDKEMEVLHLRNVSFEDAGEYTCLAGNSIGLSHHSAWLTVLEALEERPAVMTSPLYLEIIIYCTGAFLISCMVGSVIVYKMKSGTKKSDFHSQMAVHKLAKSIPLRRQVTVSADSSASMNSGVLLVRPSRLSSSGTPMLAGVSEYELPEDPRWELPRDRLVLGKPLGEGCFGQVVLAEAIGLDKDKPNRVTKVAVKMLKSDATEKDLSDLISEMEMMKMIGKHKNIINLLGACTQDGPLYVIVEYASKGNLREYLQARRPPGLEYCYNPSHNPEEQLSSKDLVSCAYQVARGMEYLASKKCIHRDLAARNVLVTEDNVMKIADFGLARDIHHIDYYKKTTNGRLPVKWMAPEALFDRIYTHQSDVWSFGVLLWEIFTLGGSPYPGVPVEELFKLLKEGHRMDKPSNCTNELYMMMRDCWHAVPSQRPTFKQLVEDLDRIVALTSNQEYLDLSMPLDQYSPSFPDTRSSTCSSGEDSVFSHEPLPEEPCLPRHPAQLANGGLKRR
Chain of FGFR3 (P22607 23-806): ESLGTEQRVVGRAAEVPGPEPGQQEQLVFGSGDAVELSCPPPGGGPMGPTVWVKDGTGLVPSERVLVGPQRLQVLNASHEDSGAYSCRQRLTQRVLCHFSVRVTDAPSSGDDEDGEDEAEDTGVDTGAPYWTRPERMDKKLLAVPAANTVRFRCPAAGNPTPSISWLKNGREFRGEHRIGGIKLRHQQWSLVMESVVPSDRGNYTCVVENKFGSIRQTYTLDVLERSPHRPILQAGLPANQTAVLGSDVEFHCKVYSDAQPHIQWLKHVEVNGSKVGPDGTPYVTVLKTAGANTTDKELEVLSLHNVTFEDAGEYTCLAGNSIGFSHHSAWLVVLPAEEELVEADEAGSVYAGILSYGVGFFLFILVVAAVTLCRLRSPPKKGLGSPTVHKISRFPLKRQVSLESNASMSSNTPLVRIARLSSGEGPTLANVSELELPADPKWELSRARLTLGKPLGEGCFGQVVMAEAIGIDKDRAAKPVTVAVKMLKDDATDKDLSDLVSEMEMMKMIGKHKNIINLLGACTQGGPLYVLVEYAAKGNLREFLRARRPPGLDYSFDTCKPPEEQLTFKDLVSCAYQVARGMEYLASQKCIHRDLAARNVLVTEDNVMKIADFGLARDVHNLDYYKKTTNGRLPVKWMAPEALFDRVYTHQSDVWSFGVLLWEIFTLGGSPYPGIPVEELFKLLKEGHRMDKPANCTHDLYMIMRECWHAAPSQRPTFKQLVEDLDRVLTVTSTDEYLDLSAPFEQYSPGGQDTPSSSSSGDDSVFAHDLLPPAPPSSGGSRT
Chain of FGFR4 (P22455 22-802): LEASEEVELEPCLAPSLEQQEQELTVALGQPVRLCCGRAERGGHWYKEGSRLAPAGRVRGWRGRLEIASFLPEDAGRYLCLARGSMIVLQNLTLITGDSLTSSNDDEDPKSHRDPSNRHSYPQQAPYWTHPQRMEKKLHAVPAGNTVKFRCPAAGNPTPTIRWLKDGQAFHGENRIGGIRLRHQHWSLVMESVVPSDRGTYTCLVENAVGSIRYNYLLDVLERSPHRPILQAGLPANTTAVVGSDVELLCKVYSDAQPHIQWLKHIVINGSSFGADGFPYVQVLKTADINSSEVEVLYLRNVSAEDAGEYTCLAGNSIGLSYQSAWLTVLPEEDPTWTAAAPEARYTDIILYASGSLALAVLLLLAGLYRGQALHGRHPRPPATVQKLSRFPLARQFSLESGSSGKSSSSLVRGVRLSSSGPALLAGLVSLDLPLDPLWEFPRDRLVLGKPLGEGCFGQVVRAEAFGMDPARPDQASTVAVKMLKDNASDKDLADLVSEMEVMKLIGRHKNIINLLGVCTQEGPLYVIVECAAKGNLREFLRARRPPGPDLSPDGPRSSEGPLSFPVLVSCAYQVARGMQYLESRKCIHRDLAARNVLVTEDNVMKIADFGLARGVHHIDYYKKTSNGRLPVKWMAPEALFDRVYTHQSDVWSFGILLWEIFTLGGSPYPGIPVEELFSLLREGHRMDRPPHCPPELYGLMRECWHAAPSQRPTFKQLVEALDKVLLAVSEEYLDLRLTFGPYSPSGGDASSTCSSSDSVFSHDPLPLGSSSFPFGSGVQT
Chain of FGFR2 (P21802 22-821): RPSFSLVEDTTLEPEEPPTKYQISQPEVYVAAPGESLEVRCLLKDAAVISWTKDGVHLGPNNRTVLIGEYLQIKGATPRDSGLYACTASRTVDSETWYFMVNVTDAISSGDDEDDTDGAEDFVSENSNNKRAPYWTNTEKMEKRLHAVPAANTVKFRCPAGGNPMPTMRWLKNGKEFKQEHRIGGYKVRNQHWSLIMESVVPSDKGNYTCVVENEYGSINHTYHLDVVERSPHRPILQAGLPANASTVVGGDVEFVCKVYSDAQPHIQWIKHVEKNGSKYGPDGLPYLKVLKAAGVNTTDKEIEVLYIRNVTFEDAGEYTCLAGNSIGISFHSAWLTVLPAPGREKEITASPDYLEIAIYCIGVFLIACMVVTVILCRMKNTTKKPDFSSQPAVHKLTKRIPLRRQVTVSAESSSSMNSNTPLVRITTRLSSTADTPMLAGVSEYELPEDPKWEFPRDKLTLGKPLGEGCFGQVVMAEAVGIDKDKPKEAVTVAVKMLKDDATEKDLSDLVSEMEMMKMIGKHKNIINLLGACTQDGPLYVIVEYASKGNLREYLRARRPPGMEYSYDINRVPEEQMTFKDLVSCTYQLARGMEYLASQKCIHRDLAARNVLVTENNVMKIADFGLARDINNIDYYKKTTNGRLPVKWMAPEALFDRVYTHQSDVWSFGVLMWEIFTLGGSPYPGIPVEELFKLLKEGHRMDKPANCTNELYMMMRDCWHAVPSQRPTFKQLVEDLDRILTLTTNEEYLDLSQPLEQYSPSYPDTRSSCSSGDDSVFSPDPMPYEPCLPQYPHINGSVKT

Row | Compound | IC50 (FGFR4) [nM] | IC50 (FGFR2) [nM] | IC50 (FGFR1) [nM] | IC50 (FGFR3) [nM] | IC50 (FGFR4; [1]) [nM] | IC50 (FGFR1; [2]) [nM] | IC50 (FGFR3; [3]) [nM]
1 | C=CC(=O)N1CCC(Nc2nc(N)c(C(N)=O)c(C#Cc3cc(OC)cc(OC)c3)n2)CC1 [Compound 10, 2-((1-acryloylpiperidin-4-yl)amino)-4-amino-6-((3,5-dimethoxyphenyl)ethynyl)pyrimidine-5-carboxamide] | 10 to 100 | 10 to 100 | 10 to 100 | 100 to 500 |  |  | 
2 | C=CC(=O)N1CCC2(CC1)CC(Nc1nc(N)c(C(N)=O)c(C#Cc3cc(OC)cc(OC)c3)n1)C2 [Compound 9, 2-((7-acryloyl-7-azaspiro[3.5]nonan-2-yl)amino)-4-amino-6-((3,5-dimethoxyphenyl)ethynyl)pyrimidine-5-carboxamide] | 100 to 500 | 10 to 100 | 100 to 500 | 10 to 100 |  |  | 
3 | C=CC(=O)N1CC[C@H](Nc2ncc(C(F)(F)F)c(C#Cc3cc(OC)cc(OC)c3)n2)C1 [Compound 4, (S)-1-(3-((4-((3,5-dimethoxyphenyl)ethynyl)-5-(trifluoromethyl)pyrimidin-2-yl)amino)pyrrolidin-1-yl)prop-2-en-1-one] | 10 to 100 | 100 to 500 | 10 to 100 | 10 to 100 |  |  | 
4 | C=CC(=O)N1CC[C@H](Nc2ncc(Br)c(C#Cc3cc(OC)cc(OC)c3)n2)C1 [Compound 2, (S)-1-(3-((5-bromo-4-((3,5-dimethoxyphenyl)ethynyl)pyrimidin-2-yl)amino)pyrrolidin-1-yl)prop-2-en-1-one] | 100 to 500 | 10 to 100 | 10 to 100 | 100 to 500 |  |  | 
5 | CC#CC(=O)N1CCC[C@H](n2nc(C#Cc3cc(OC)cc(OC)c3)c3c(N)n[nH]c(=O)c32)C1 [Compound 25, (S)-4-amino-1-(1-(but-2-ynoyl)piperidin-3-yl)-3-((3,5-dimethoxyphenyl)ethynyl)-1,6-dihydro-7H-pyrazolo[3,4-d]pyridazin-7-one] | < 10 | < 10 | < 10 | < 10 |  |  | 
6 | CC#CC(=O)N1CC[C@H](Nc2ncc(C(F)(F)F)c(C#Cc3cc(OC)cc(OC)c3)n2)C1 [Compound 14, (S)-1-(3-((4-((3,5-dimethoxyphenyl)ethynyl)-5-(trifluoromethyl)pyrimidin-2-yl)amino)pyrrolidin-1-yl)but-2-yn-1-one] | 10 to 100 | 10 to 100 | 10 to 100 | 100 to 500 |  |  | 
7 | (S)-4-amino-1-(1-(but-2-ynoyl)pyrrolidin-3-yl)-3-((2,6-difluoro-3,5-dimethoxyphenyl)ethynyl)-1,6-dihydro-7H-pyrazolo[3,4-d]pyridazin-7-one [Compound 29] |  | < 10 |  |  | < 10 | < 10 | < 10
8 | C=CC(=O)N[C@H]1CCN(c2nc(N)c(C(N)=O)c(C#Cc3cc(OC)cc(OC)c3)n2)C1 [Compound 17, (S)-2-(3-acrylamidopyrrolidin-1-yl)-4-amino-6-((3,5-dimethoxyphenyl)ethynyl)pyrimidine-5-carboxamide] | < 10 | < 10 | < 10 | < 10 |  |  | 
9 | C=CC(=O)N1CC[C@H](Nc2ncc(C#N)c(C#Cc3cc(OC)cc(OC)c3)n2)C1 [Compound 5, (S)-2-((1-acryloylpyrrolidin-3-yl)amino)-4-((3,5-dimethoxyphenyl)ethynyl)pyrimidine-5-carbonitrile] | 10 to 100 | 10 to 100 | 10 to 100 | 100 to 500 |  |  | 
10 | C=CC(=O)N1CC[C@H](Nc2ncc(F)c(C#Cc3cc(OC)cc(OC)c3)n2)C1 [Compound 3, (S)-1-(3-((4-((3,5-dimethoxyphenyl)ethynyl)-5-fluoropyrimidin-2-yl)amino)pyrrolidin-1-yl)prop-2-en-1-one] | 10 to 100 | 10 to 100 | 10 to 100 | 10 to 100 |  |  | 
11 | CC#CC(=O)N1CC[C@H](n2cc(-c3ccc4ccccc4c3)c3c(N)n[nH]c(=O)c32)C1 [Compound 39, (S)-4-amino-1-(1-(but-2-ynoyl)pyrrolidin-3-yl)-3-(naphthalen-2-yl)-1,6-dihydro-7H-pyrrolo[2,3-d]pyridazin-7-one] | < 10 | < 10 | < 10 | < 10 |  |  | 
12 | CC#CC(=O)N1CC[C@H](n2nc(C#Cc3cc(OC)cc(OC)c3)c3c(N)n[nH]c(=O)c32)C1 [Compound 27, (S)-4-amino-1-(1-(but-2-ynoyl)pyrrolidin-3-yl)-3-((3,5-dimethoxyphenyl)ethynyl)-1,6-dihydro-7H-pyrazolo[3,4-d]pyridazin-7-one] | < 10 | < 10 | < 10 | < 10 |  |  | 

Second part, led by results:

Row | IC50 (FGFR4) [nM] | IC50 (FGFR2) [nM] | IC50 (FGFR1) [nM] | IC50 (FGFR3) [nM] | Compound | IC50 (FGFR4; [1]) [nM] | IC50 (FGFR1; [2]) [nM] | IC50 (FGFR3; [3]) [nM]
13 | < 10 | < 10 | < 10 | < 10 | C=CC(=O)N1CC[C@H](n2cc(-c3cn(C)c4ccccc34)c3c(N)n[nH]c(=O)c32)C1 [Compound 42, (S)-1-(1-acryloylpyrrolidin-3-yl)-4-amino-3-(1-methyl-1H-indol-3-yl)-1,6-dihydro-7H-pyrrolo[2,3-d]pyridazin-7-one] |  |  | 
14 | < 10 | < 10 | 10 to 100 | < 10 | C=CC(=O)N1CCC(c2nc(N)c(C(N)=O)c(C#Cc3cc(OC)cc(OC)c3)n2)C1 (centres unmarked) [Compound 18, 2-(1-acryloylpyrrolidin-3-yl)-4-amino-6-((3,5-dimethoxyphenyl)ethynyl)pyrimidine-5-carboxamide] |  |  | 
15 | < 10 | < 10 | < 10 | < 10 | CC#CC(=O)N1CCC[C@H](n2cc(C#Cc3cc(OC)cc(OC)c3)c3c(N)n[nH]c(=O)c32)C1 [Compound 21, (S)-4-amino-1-(1-(but-2-ynoyl)piperidin-3-yl)-3-((3,5-dimethoxyphenyl)ethynyl)-1,6-dihydro-7H-pyrrolo[2,3-d]pyridazin-7-one] |  |  | 
16 | < 10 | < 10 | < 10 | < 10 | CC#CC(=O)N1CC[C@H](Nc2nc(N)c(C(N)=O)c(C#Cc3cc(OC)cc(OC)c3)n2)C1 [Compound 12, (S)-4-amino-2-((1-(but-2-ynoyl)pyrrolidin-3-yl)amino)-6-((3,5-dimethoxyphenyl)ethynyl)pyrimidine-5-carboxamide] |  |  | 
17 |  | < 10 |  |  | 2-(1-acryloylpyrrolidin-3-yl)-4-((3,5-dimethoxyphenyl)ethynyl)pyrimidine-5-carboxamide [Compound 19] | < 10 | < 10 | < 10
18 | 10 to 100 | < 10 | < 10 | 10 to 100 | C=CC(=O)N1CC[C@H](Nc2ncc(C(N)=O)c(C#Cc3cc(OC)cc(OC)c3)n2)C1 [Compound 16, (S)-2-((1-acryloylpyrrolidin-3-yl)amino)-4-((3,5-dimethoxyphenyl)ethynyl)pyrimidine-5-carboxamide] |  |  | 
19 | < 10 | < 10 | < 10 | < 10 | C=CC(=O)N1CC[C@H](n2cc(-c3cc4ccccc4o3)c3c(N)n[nH]c(=O)c32)C1 [Compound 41, (S)-1-(1-acryloylpyrrolidin-3-yl)-4-amino-3-(benzofuran-2-yl)-1,6-dihydro-7H-pyrrolo[2,3-d]pyridazin-7-one] |  |  | 
20 | < 10 | < 10 | < 10 | < 10 | C=CC(=O)N1CC[C@H](n2cc(-c3ccc4ccccc4c3)c3c(N)n[nH]c(=O)c32)C1 [Compound 43, (S)-1-(1-acryloylpyrrolidin-3-yl)-4-amino-3-(naphthalen-2-yl)-1,6-dihydro-7H-pyrrolo[2,3-d]pyridazin-7-one] |  |  | 
21 | 10 to 100 | 10 to 100 | 10 to 100 | 100 to 500 | C=CC(=O)N1CC[C@H](Nc2nccc(C#Cc3cc(OC)cc(OC)c3)n2)C1 [Compound 1, (S)-1-(3-((4-((3,5-dimethoxyphenyl)ethynyl)pyrimidin-2-yl)amino)pyrrolidin-1-yl)prop-2-en-1-one] |  |  | 
22 | < 10 | < 10 | < 10 | < 10 | C=CC(=O)N1CC[C@H](Nc2nc(N)c(C(N)=O)c(C#Cc3cc(OC)cc(OC)c3)n2)C1 [Compound 6, (S)-2-((1-acryloylpyrrolidin-3-yl)amino)-4-amino-6-((3,5-dimethoxyphenyl)ethynyl)pyrimidine-5-carboxamide] |  |  | 
23 | < 10 | < 10 | < 10 | < 10 | C=CC(=O)N1CC[C@@H](Nc2nc(N)c(C(N)=O)c(C#Cc3cc(OC)cc(OC)c3)n2)C1 [Compound 15, (R)-2-((1-acryloylpyrrolidin-3-yl)amino)-4-amino-6-((3,5-dimethoxyphenyl)ethynyl)pyrimidine-5-carboxamide] |  |  | 
24 | 100 to 500 | 10 to 100 | 10 to 100 | 10 to 100 | CC#CC(=O)N1CC[C@H](Nc2ncc(Br)c(C#Cc3cc(OC)cc(OC)c3)n2)C1 [Compound 13, (S)-1-(3-((5-bromo-4-((3,5-dimethoxyphenyl)ethynyl)pyrimidin-2-yl)amino)pyrrolidin-1-yl)but-2-yn-1-one] |  |  | 
25 | 10 to 100 | 10 to 100 | 10 to 100 | 10 to 100 | C=CC(=O)N1CC2(CC(Nc3nc(N)c(C(N)=O)c(C#Cc4cc(OC)cc(OC)c4)n3)C2)C1 [Compound 7, 2-((2-acryloyl-2-azaspiro[3.3]heptan-6-yl)amino)-4-amino-6-((3,5-dimethoxyphenyl)ethynyl)pyrimidine-5-carboxamide] |  |  | 
26 | 10 to 100 | 10 to 100 | 10 to 100 | 100 to 500 | C=CC(=O)N1CCC[C@H](Nc2nc(N)c(C(N)=O)c(C#Cc3cc(OC)cc(OC)c3)n2)C1 [Compound 11, (S)-2-((1-acryloylpiperidin-3-yl)amino)-4-amino-6-((3,5-dimethoxyphenyl)ethynyl)pyrimidine-5-carboxamide] |  |  | 
